{
  "source": "patent US8802597B2",
  "about": "“Herbicidal pyrimidines” (E I du Pont de Nemours and Company, priority 2003, dated 2014)",
  "key": {"[1]": {"test_system": "barnyardgrass (Echinochloa crus-galli)", "assay": "Test C flooded paddy test", "assay_type": "in vivo", "settings": "Flood", "procedure": "(§1) At the same time, plants selected from these crop and weed species and also winter barley (Hordeum vulgare), blackgrass (Alopecurus myosuroides), canarygrass (Phalaris minor), chickweed (Stellaria media), downy brome (Bromus tectorum), green foxtail (Setaria viridis), Italian ryegrass (Lolium multiflorum), wheat (Triticum aestivum), wild oat (Avena fatua) and windgrass (Apera spica-venti) were treated with postemergence applications of some of the test chemicals formulated in the same manner. Plants ranged in height from 2 to 18 cm (1- to 4-leaf stage) for postemergence treatments. Plant species in the flooded paddy test consisted of rice (Oryza sativa), umbrella sedge (Cyperus difformis), duck salad (Heteranthera limosa) and barnyardgrass (Echinochloa crus-galli) grown to the 2-leaf stage for testing. Treated plants and controls were maintained in a greenhouse for 12 to 14 days, after which time all species were compared to controls and visually evaluated. Plant response ratings, summarized in Table C, are based on a scale of 0 to 100 where 0 is no effect and 100 is complete control. A dash (-) response means no test result."}, "[2]": {"test_system": "duck salad (Heteranthera limosa)", "assay": "Test C flooded paddy test", "assay_type": "in vivo", "settings": "Flood, scale 0 to 100", "procedure": "as §1"}, "[3]": {"test_system": "umbrella sedge (Cyperus difformis)", "assay": "Test C flooded paddy test", "assay_type": "in vivo", "settings": "Flood, scale 0 to 100", "procedure": "as §1"}, "[4]": {"test_system": "rice (Oryza sativa)", "assay": "Test C flooded paddy test", "assay_type": "in vivo", "settings": "Flood, scale 0 to 100", "procedure": "as §1"}, "[5]": {"settings": "500 g ai/ha, scale 0 to 100 (0 no effect, 100 complete control)"}},
  "data": [
    {"smiles": "Nc1nc(C2CC2)nc(CO)c1Br", "note": "[Compound 21]", "values": [
      {"measurement": "melting point", "result": "182 to 185", "unit": "°C"}
    ]},
    {"smiles": "COC(=O)c1nc(C2CC2)nc(N)c1Cl", "note": "[Compound 9, methyl 6-amino-5-chloro-2-cyclopropyl-4-pyrimidinecarboxylate]", "values": [
      {"measurement": "Plant response rating, Barnyardgrass", "setting": "[1]; 62 g ai/ha, scale 0 to 100", "result": 0},
      {"measurement": "Plant response rating, Barnyardgrass", "setting": "[1]; 125 g ai/ha, scale 0 to 100", "result": 15},
      {"measurement": "Plant response rating, Barnyardgrass", "setting": "[1]; 250 g ai/ha, scale 0 to 100", "result": 55},
      {"measurement": "Plant response rating, Barnyardgrass", "setting": "[1]; [5]", "result": 85},
      {"measurement": "Plant response rating, Ducksalad", "setting": "[2]; 62 g ai/ha", "result": 45},
      {"measurement": "Plant response rating, Ducksalad", "setting": "[2]; 125 g ai/ha", "result": 70},
      {"measurement": "Plant response rating, Ducksalad", "setting": "[2]; 250 g ai/ha", "result": 80},
      {"measurement": "Plant response rating, Ducksalad", "setting": "[2]; 500 g ai/ha", "result": 90},
      {"measurement": "Plant response rating, Sedge, Umbrella", "setting": "[3]; 62 g ai/ha", "result": 0},
      {"measurement": "Plant response rating, Sedge, Umbrella", "setting": "[3]; 125 g ai/ha", "result": 15},
      {"measurement": "Plant response rating, Sedge, Umbrella", "setting": "[3]; 250 g ai/ha", "result": 15},
      {"measurement": "Plant response rating, Sedge, Umbrella", "setting": "[3]; 500 g ai/ha", "result": 85},
      {"measurement": "Plant response rating, Rice", "setting": "[4]; 62 g ai/ha", "result": 0},
      {"measurement": "Plant response rating, Rice", "setting": "[4]; 125 g ai/ha", "result": 30},
      {"measurement": "Plant response rating, Rice", "setting": "[4]; 250 g ai/ha", "result": 55},
      {"measurement": "Plant response rating, Rice", "setting": "[4]; 500 g ai/ha", "result": 75}
    ]},
    {"smiles": "Nc1nc(C2CC2)nc(C(=O)[O-])c1Br.[Na+]", "note": "[Compound 113, 6-amino-5-bromo-2-cyclopropyl-4-pyrimidinecarboxylic acid monosodium salt]", "values": [
      {"measurement": "melting point", "result": "> 300", "unit": "°C"}
    ]},
    {"smiles": "CCCCOC(=O)c1nc(C2CC2)nc(N)c1Br", "note": "[Compound 16]", "values": [
      {"measurement": "Plant response rating, Barnyardgrass", "setting": "[1]; 62 g ai/ha, scale 0 to 100", "result": 0},
      {"measurement": "Plant response rating, Barnyardgrass", "setting": "[1]; 125 g ai/ha, scale 0 to 100", "result": 0},
      {"measurement": "Plant response rating, Barnyardgrass", "setting": "[1]; 250 g ai/ha, scale 0 to 100", "result": 15},
      {"measurement": "Plant response rating, Barnyardgrass", "setting": "[1]; [5]", "result": 50},
      {"measurement": "Plant response rating, Ducksalad", "setting": "[2]; 62 g ai/ha", "result": 65},
      {"measurement": "Plant response rating, Ducksalad", "setting": "[2]; 125 g ai/ha", "result": 65},
      {"measurement": "Plant response rating, Ducksalad", "setting": "[2]; 250 g ai/ha", "result": 75},
      {"measurement": "Plant response rating, Ducksalad", "setting": "[2]; 500 g ai/ha", "result": 85},
      {"measurement": "Plant response rating, Sedge, Umbrella", "setting": "[3]; 125 g ai/ha", "result": 0},
      {"measurement": "Plant response rating, Sedge, Umbrella", "setting": "[3]; 250 g ai/ha", "result": 50},
      {"measurement": "Plant response rating, Sedge, Umbrella", "setting": "[3]; 500 g ai/ha", "result": 55},
      {"measurement": "Plant response rating, Rice", "setting": "[4]; 62 g ai/ha", "result": 0},
      {"measurement": "Plant response rating, Rice", "setting": "[4]; 125 g ai/ha", "result": 0},
      {"measurement": "Plant response rating, Rice", "setting": "[4]; 250 g ai/ha", "result": 0},
      {"measurement": "Plant response rating, Rice", "setting": "[4]; 500 g ai/ha", "result": 65}
    ]},
    {"smiles": "CNc1nc(C2CC2)nc(C(=O)OC)c1Br", "note": "[Compound 5]", "values": [
      {"measurement": "Plant response rating, Barnyardgrass", "setting": "[1]; 62 g ai/ha, scale 0 to 100", "result": 0},
      {"measurement": "Plant response rating, Barnyardgrass", "setting": "[1]; 125 g ai/ha, scale 0 to 100", "result": 0},
      {"measurement": "Plant response rating, Barnyardgrass", "setting": "[1]; 250 g ai/ha, scale 0 to 100", "result": 0},
      {"measurement": "Plant response rating, Barnyardgrass", "setting": "[1]; [5]", "result": 20},
      {"measurement": "Plant response rating, Ducksalad", "setting": "[2]; 62 g ai/ha", "result": 0},
      {"measurement": "Plant response rating, Ducksalad", "setting": "[2]; 125 g ai/ha", "result": 0},
      {"measurement": "Plant response rating, Ducksalad", "setting": "[2]; 250 g ai/ha", "result": 0},
      {"measurement": "Plant response rating, Ducksalad", "setting": "[2]; 500 g ai/ha", "result": 0},
      {"measurement": "Plant response rating, Sedge, Umbrella", "setting": "[3]; 62 g ai/ha", "result": 0},
      {"measurement": "Plant response rating, Sedge, Umbrella", "setting": "[3]; 125 g ai/ha", "result": 0},
      {"measurement": "Plant response rating, Sedge, Umbrella", "setting": "[3]; 250 g ai/ha", "result": 0},
      {"measurement": "Plant response rating, Sedge, Umbrella", "setting": "[3]; 500 g ai/ha", "result": 0},
      {"measurement": "Plant response rating, Rice", "setting": "[4]; 62 g ai/ha", "result": 0},
      {"measurement": "Plant response rating, Rice", "setting": "[4]; 125 g ai/ha", "result": 0},
      {"measurement": "Plant response rating, Rice", "setting": "[4]; 250 g ai/ha", "result": 0},
      {"measurement": "Plant response rating, Rice", "setting": "[4]; 500 g ai/ha", "result": 0}
    ]},
    {"smiles": "CCCOC(=O)c1nc(C2CC2)nc(N)c1Br", "note": "[Compound 15]", "values": [
      {"measurement": "Plant response rating, Barnyardgrass", "setting": "[1]; 62 g ai/ha, scale 0 to 100", "result": 0},
      {"measurement": "Plant response rating, Barnyardgrass", "setting": "[1]; 125 g ai/ha, scale 0 to 100", "result": 0},
      {"measurement": "Plant response rating, Barnyardgrass", "setting": "[1]; 250 g ai/ha, scale 0 to 100", "result": 25},
      {"measurement": "Plant response rating, Barnyardgrass", "setting": "[1]; [5]", "result": 75},
      {"measurement": "Plant response rating, Ducksalad", "setting": "[2]; 62 g ai/ha", "result": 45},
      {"measurement": "Plant response rating, Ducksalad", "setting": "[2]; 125 g ai/ha", "result": 45},
      {"measurement": "Plant response rating, Ducksalad", "setting": "[2]; 250 g ai/ha", "result": 50},
      {"measurement": "Plant response rating, Ducksalad", "setting": "[2]; 500 g ai/ha", "result": 85},
      {"measurement": "Plant response rating, Sedge, Umbrella", "setting": "[3]; 62 g ai/ha", "result": 0},
      {"measurement": "Plant response rating, Sedge, Umbrella", "setting": "[3]; 125 g ai/ha", "result": 0},
      {"measurement": "Plant response rating, Sedge, Umbrella", "setting": "[3]; 250 g ai/ha", "result": 10},
      {"measurement": "Plant response rating, Sedge, Umbrella", "setting": "[3]; 500 g ai/ha", "result": 25},
      {"measurement": "Plant response rating, Rice", "setting": "[4]; 62 g ai/ha", "result": 0},
      {"measurement": "Plant response rating, Rice", "setting": "[4]; 125 g ai/ha", "result": 0},
      {"measurement": "Plant response rating, Rice", "setting": "[4]; 250 g ai/ha", "result": 20},
      {"measurement": "Plant response rating, Rice", "setting": "[4]; 500 g ai/ha", "result": 50}
    ]}
  ]
}
